Columns and labels:
TTE seizure = test: Threshold tonic extension (TTE) test, mouse, i.p.; format: in vivo
Excerpt: (§1) The hydrazones, hydrazines and semicarbazones derived from pyridyl ketones and the resulting orally effective anticonvulsant compositions of this invention are useful in the treatment of convulsive disorders. […] A series of hydrazones, hydrazines and semicarbazones derived from pyridyl ketones of this invention has been evaluated for anticonvulsant activity by the intraperitoneal (i.p.) and by the oral (p.o.) route using two standard seizure models in the mouse and in the rat, the maximal electroshock seizure (MES) test and the subcutaneous pentylenetetrazole (Metrazole) seizure threshold (scMet) test. […] In addition, the compounds are evaluated in a new model, the threshold tonic extension (TTE) model. […] Thus active compounds that may be missed in the MES and scMet tests in the mouse, i.p., can be detected in the TTE test.
The Threshold Tonic Extension (TTE) Test: The TTE test (Piredda et al., 1985) is a clinically nonselective, electroconvulsive seizure model that identifies compounds that raise seizure threshold as well as those that prevent seizure spread. […] The test is similar to the MES screen but uses a lower level of electrical current. The lower current makes the TTE test more sensitive but less discriminate than the MES screen. This ability makes the model attractive because it allows us to identify compounds that may be missed by our standard identification screen.
Twenty mice are pretreated intraperitoneally with 100 mg/kg of the test substance. At several time intervals (1/4, 1/2, 1, 2, and 4 hours) post treatment with the test drug, four mice at each time point are challenged with 12.5 mA of electrical current for 0.2 seconds via corneal electrodes. This produces a TTE seizure in the animals (Woodbury and Davenport, 1952).
For each time interval results are expressed as a ratio of the number of animals protected over the number tested. […] The positives may represent compounds acting by novel mechanisms.

[1] = tested on: maximal electroshock seizures; test: Maximal electroshock seizure (MES) test, rat, p.o.; format: in vivo, rat (Sprague-Dawley); conditions: for ED50 / responders at 30 mg/kg: po; for responders at 30 mg/kg: several time points over a 4 hour period, read-out: Percent Protection at 30 mg/kg, in the MES test; for P.I., TD50/ED50, MES: Table 6
Excerpt: The hydrazones, hydrazines and semicarbazones derived from pyridyl ketones and the resulting orally effective anticonvulsant compositions of this invention are useful in the treatment of convulsive disorders. […] A series of hydrazones, hydrazines and semicarbazones derived from pyridyl ketones of this invention has been evaluated for anticonvulsant activity by the intraperitoneal (i.p.) and by the oral (p.o.) route using two standard seizure models in the mouse and in the rat, the maximal electroshock seizure (MES) test and the subcutaneous pentylenetetrazole (Metrazole) seizure threshold (scMet) test. […] In addition, the compounds are evaluated in a new model, the threshold tonic extension (TTE) model. […] Thus active compounds that may be missed in the MES and […] the mouse, i.p., can be detected in the TTE test. The Maximal Electroshock Seizure Test (MES): Maximal electroshock seizures are elicited with a 60 Hz alternating current of 50 mA intensity in mice and about 150 mA intensity in rats (5-7 times that necessary to elicit minimal electroshock seizures), delivered for 0.2 sec via corneal electrodes. A drop of 0.9% saline is instilled in the eye prior to application of the electrodes in order to […]. Abolition of the hind limb tonic extension component of the seizure is defined as protection and results are expressed as number of animals protected/number of animals tested. […] This species will be the subject of the complete anticonvulsant quantification test evaluation as described above, but after oral (gavage) administration of the candidate compound.

[2] = tested on: subcutaneous pentylenetetrazole (Metrazole) seizure; test: Subcutaneous pentylenetetrazole (Metrazole) seizure threshold test (scMet), rat, p.o.; format: in vivo, rat (Sprague-Dawley); conditions: po, rats, Table 6
Excerpt: as §1
(§2) The Subcutaneous Pentylenetetrazol (Metrazole) Seizure Treshold Test (scMET): A 0.5 % solution of 85 mg/kg of pentylenetetrazole is administered subcutaneously in the posterior midline 30 minutes or 4 hours after drug administration to the animal. Failure to observe even a threshold seizure (a single episode of clonic spasms of at least 5 sec duration) is defined as protection and the results are expressed as number of animals protected/number of animals tested.
(§3) This species will be the subject of the complete anticonvulsant quantification test evaluation as described above, but after oral (gavage) administration of the candidate compound.

[3] = tested on: maximal electroshock seizures; test: Maximal electroshock seizure (MES) test, mouse, i.p.; format: in vivo, mouse (male Carworth Farms #1); conditions: for ASP Group Classification, MES Test: mouse, 30, 100 and 300 mg/kg; for ED50: Mus musculus, ip; for ED50 / P.I., TD50/ED50, MES: mice, Table 5
Excerpt: The hydrazones, hydrazines and semicarbazones derived from pyridyl ketones and the resulting orally effective anticonvulsant compositions of this invention are useful in the treatment of convulsive disorders. […] A series of hydrazones, hydrazines and semicarbazones derived from pyridyl ketones of this invention has been evaluated for anticonvulsant activity by the intraperitoneal (i.p.) and by the oral (p.o.) route using two standard seizure models in the mouse and in the rat, the maximal electroshock seizure (MES) test and the subcutaneous pentylenetetrazole (Metrazole) seizure threshold (scMet) test. […] In addition, the compounds are evaluated in a new model, the threshold tonic extension (TTE) model. […] Thus active compounds that may be missed in the MES and […] the mouse, i.p., can be detected in the TTE test. Based on the screening results, the compounds are placed in one of three categories. […] Class II compounds show anticonvulsant activity at doses greater than 100 mg/kg or show activity at 100 mg/kg which is not reinforced by similar activity at 300 mg/kg. […] The Class I compounds are those which are most promising as anticonvulsants. […] In mice. i.p.: All compounds are emulsified in 0.5% methylcellulose. The solvent has been tested for anticonvulsant and toxic effects and found to introduce no significant bias into the testing of anticonvulsant activity. The compounds are administered intraperitoneally in a volume of 0.01 ml/gm to male Carworth Farms #1 mice weighing about 20 gm. All compounds are tested at least at three dose levels (30, 100 and 300 mg/kg) at 30 minutes and 4 hours after their administration. The Maximal Electroshock Seizure Test (MES): Maximal electroshock seizures are elicited with a 60 Hz alternating current of 50 mA intensity in mice and about 150 mA intensity in rats (5-7 times that necessary to elicit minimal electroshock seizures), delivered for 0.2 sec via corneal electrodes. A drop of 0.9% saline is instilled in the eye prior to application of the electrodes in order to […]. Abolition of the hind limb tonic extension component of the seizure is defined as protection and results are expressed as number of animals protected/number of animals tested. Anticonvulsant Quantification in Mice, i.p.: The ED50 values are determined in the MES, scMet and rotorod ataxia test.

in vivo [4] = test: in vivo; parameters: species or system rat (Sprague-Dawley); conditions: rat, po
Description: (§4) Neurotoxicity is determined by the rotorod ataxia test in mice and by the positional sense test and gait and stance test in the rat.
as §3
Neurological deficit in rats is examined by the positional sense test and gait and stance test. […] Inability to do so rapidly indicates a neurologic deficit. In the gait and stance test, a neurologic deficit is indicated by a circular or a zigzag gait, ataxia, abnormal spread of the legs, abnormal body posture, tremor, hyperactivity, lack of exploratory behavior, somnolence, stupor, or catalepsy.

[5] = tested on: subcutaneous pentylenetetrazole (Metrazole) seizure; test: Subcutaneous pentylenetetrazole (Metrazole) seizure threshold test (scMet), mouse, i.p.; format: in vivo, mouse (male Carworth Farms #1); conditions: ip, mice, Table 5
Excerpt: as §1
In mice. i.p.: All compounds are emulsified in 0.5% methylcellulose. The solvent has been tested for anticonvulsant and toxic effects and found to introduce no significant bias into the testing of anticonvulsant activity. The compounds are administered intraperitoneally in a volume of 0.01 ml/gm to male Carworth Farms #1 mice weighing about 20 gm. All compounds are tested at least at three dose levels (30, 100 and 300 mg/kg) at 30 minutes and 4 hours after their administration.
as §2
(§5) Anticonvulsant Quantification in Mice, i.p.: The ED50 values are determined in the MES, scMet and rotorod ataxia test.

in vivo [6] = test: in vivo; parameters: species or system mouse (male Carworth Farms #1); conditions: mouse, ip
Description: as §4
Neurotoxicity is evaluated in mice by the rotorod ataxia test. The animal is placed on a wooden rod of 1 and 1/8" diameter rotating at 6 rpm. Normal mice can remain on a rod rotating at this speed indefinitely.
as §5

[7] = Rattus norvegicus, rats, Table 6, read-out: ED50, MES
[8] = rat, Table 7, read-out: Anticonvulsant Efficacy (ED50, mg/kg) in the MES Test

SMILES | ED50 (TTE seizure; Mus musculus, ip, mice, Table 5) [mg/kg] | ASP Group Classification, TTE Test (TTE seizure; mouse, 100 mg/kg) | TTE Test (Percent Protection) (TTE seizure; mouse, 100 mg/kg) [%] | ED50 [1, 7] [mg/kg] | responders at 30 mg/kg ([1]; rat, 30 mg/kg) [%] | ED50 [1, 8] [mg/kg] | P.I., TD50/ED50, MES ([1]; rats) | ED50 [2] [mg/kg] | ASP Group Classification, MES Test [3] | TD50 (in vivo [4]) [mg/kg] | ED50 [5] [mg/kg] | TD50 (in vivo [6]) [mg/kg] | ED50 [3] [mg/kg] | P.I., TD50/ED50, MES [3] | protection at 30 mg/kg, MES Test ([1]; rat, 30 mg/kg, Table 7)
CC(=NNc1ccc(Cl)c(Cl)c1)c1ccncc1 [Compound 1, Methyl 4-pyridyl ketone 3,4-dichlorophenylhydrazone] | 71 | I (They demonstrate anticonvulsant activity in either the MES test or the scMet test, or both at doses of 100 mg/kg or 30 mg/kg without signs of neurological deficit and thus have an estimated protective index of greater than 1) | 62 | 16.9 | 25 to 95 | 16.9 | > 29.64 | > 250 | III (Those failing to demonstrate anticonvulsant activity at doses up to 300 mg/kg are considered inactive) | > 500 | – | – | – | – | –
CC(=NNc1cccc(Cl)c1)c1ccncc1 [Compound 3, Methyl 4-pyridyl ketone 3-chlorophenyl hydrazone] | – | – | – | 36.6 | 50 to 100 | – | > 13.65 | > 250 | II (show anticonvulsant activity at doses greater than 100 mg/kg or show activity at 100 mg/kg which is not reinforced by similar activity at 300 mg/kg) | > 500 | > 500 | 441 | 81.8 | 5.39 | –
CC(=NNc1ccc(Cl)c(Cl)c1)c1cccnc1 [Compound 4, Methyl 3-pyridyl ketone 3,4-dichlorophenylhydrazone] | – | – | – | – | 25 to 100 | – | – | – | I (They demonstrate anticonvulsant activity in either the MES test or the scMet test, or both at doses of 100 mg/kg or 30 mg/kg without signs of neurological deficit and thus have an estimated protective index of greater than 1) | – | > 500 | > 500 | 69.8 | > 7.17 | –
CC(=NNc1ccc(Cl)cc1)c1cccnc1 [Compound 5, Methyl 3-pyridyl ketone 4-chlorophenylhydrazone] | – | – | – | 7.79 | 50 to 100 | 7.8 | > 64.12 | > 250 | I (They demonstrate anticonvulsant activity in either the MES test or the scMet test, or both at doses of 100 mg/kg or 30 mg/kg without signs of neurological deficit and thus have an estimated protective index of greater than 1) | > 500 | – | – | – | – | –
NC(=O)NN=C(c1ccccc1)c1ccncc1 [Compound 15, Phenyl 4-pyridyl ketone semicarbazone] | – | – | – | – | 50 to 100 | – | – | – | I (They demonstrate anticonvulsant activity in either the MES test or the scMet test, or both at doses of 100 mg/kg or 30 mg/kg without signs of neurological deficit and thus have an estimated protective index of greater than 1) | – | > 300 | 160 | 57.5 | 2.79 | 50-100%

Source: patent publication US5942527A, “Hydrazones, hydrazines, semicarbazones and thiosemicarbazones derived from pyridyl ketones as anticonvulsant drugs and excitatory amino acid antagonists” (K & K Biosciences, Inc., priority 1997, dated 1999)
